Measured values: ChEMBL document CHEMBL4421728, “Bach1 Inhibitors in Combination with Nrf2 Activators and Pharmaceutical Compositions Thereof” (2017)

Assays:
[1] = molecular target: T1, Transcription regulator protein BACH1 (Homo sapiens) (UniProt O14867); assay: Inhibition of Bach1 in normal human lung fibroblasts assessed as induction of HMOX protein expression by measuring HMOX positive cells level at 0.039 uM in presence of 3 uM Nrf2 activator DMF incubated for 16 to 18 hrs by immunostaining relative to control DMSO; set-up: scale not given: the % may be the effect or the level left
T1 sequence (whole entry): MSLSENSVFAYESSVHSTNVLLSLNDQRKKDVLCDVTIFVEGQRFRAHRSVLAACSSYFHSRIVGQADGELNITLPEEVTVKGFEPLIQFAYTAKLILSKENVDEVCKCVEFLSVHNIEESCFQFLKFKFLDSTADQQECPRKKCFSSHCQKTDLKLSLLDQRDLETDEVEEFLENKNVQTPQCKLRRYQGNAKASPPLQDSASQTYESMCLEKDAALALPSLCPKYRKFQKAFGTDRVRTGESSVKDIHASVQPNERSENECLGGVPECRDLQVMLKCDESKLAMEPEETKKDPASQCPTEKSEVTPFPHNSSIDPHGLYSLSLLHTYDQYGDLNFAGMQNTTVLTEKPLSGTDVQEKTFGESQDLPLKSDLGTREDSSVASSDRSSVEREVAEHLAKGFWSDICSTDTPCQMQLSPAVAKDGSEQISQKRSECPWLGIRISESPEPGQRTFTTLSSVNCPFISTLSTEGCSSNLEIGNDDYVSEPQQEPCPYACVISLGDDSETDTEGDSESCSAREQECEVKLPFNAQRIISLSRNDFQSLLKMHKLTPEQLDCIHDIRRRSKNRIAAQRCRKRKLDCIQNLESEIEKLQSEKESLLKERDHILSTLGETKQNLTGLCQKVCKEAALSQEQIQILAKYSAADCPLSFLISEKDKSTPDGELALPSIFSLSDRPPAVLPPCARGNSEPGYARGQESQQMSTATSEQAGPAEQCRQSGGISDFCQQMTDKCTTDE

[2] = molecular target: T1, Transcription regulator protein BACH1 (Homo sapiens); assay: Inhibition of Bach1 in normal human lung fibroblasts assessed as induction of HMOX protein expression by measuring HMOX positive cells level at 0.078 uM in presence of 30 uM Nrf2 activator DMF incubated for 16 to 18 hrs by immunostaining relative to control DMSO; set-up: scale not given: the % may be the effect or the level left
[3] = molecular target: T1, Transcription regulator protein BACH1 (Homo sapiens); assay: Inhibition of Bach1 in normal human lung fibroblasts assessed as induction of HMOX protein expression at 0.039 uM in presence of 10 uM Nrf2 activator DMF incubated for 16 to 18 hrs by immunostaining relative to control
[4] = molecular target: T1, Transcription regulator protein BACH1 (Homo sapiens); assay: Inhibition of Bach1 in normal human lung fibroblasts assessed as induction of HMOX protein expression at 0.156 uM in presence of 0.03 uM Nrf2 activator DMF incubated for 16 to 18 hrs by immunostaining relative to control
[5] = molecular target: T1, Transcription regulator protein BACH1 (Homo sapiens); assay: Inhibition of Bach1 in normal human lung fibroblasts assessed as induction of HMOX protein expression at 0.078 uM in presence of 30 uM Nrf2 activator DMF incubated for 16 to 18 hrs by immunostaining relative to control
[6] = molecular target: T1, Transcription regulator protein BACH1 (Homo sapiens); assay: Inhibition of Bach1 in normal human lung fibroblasts assessed as induction of HMOX protein expression by measuring HMOX positive cells level at 0.156 uM in presence of 30 uM Nrf2 activator DMF incubated for 16 to 18 hrs by immunostaining relative to control DMSO; set-up: scale not given: the % may be the effect or the level left
[7] = molecular target: T1, Transcription regulator protein BACH1 (Homo sapiens); assay: Inhibition of Bach1 in normal human lung fibroblasts assessed as induction of HMOX protein expression by measuring HMOX positive cells level at 0.039 uM in presence of 0.3 uM Nrf2 activator DMF incubated for 16 to 18 hrs by immunostaining relative to control DMSO; set-up: scale not given: the % may be the effect or the level left
[8] = molecular target: T1, Transcription regulator protein BACH1 (Homo sapiens); assay: Inhibition of Bach1 in normal human lung fibroblasts assessed as induction of HMOX protein expression by measuring HMOX positive cells level at 0.156 uM in presence of 0.1 uM Nrf2 activator DMF incubated for 16 to 18 hrs by immunostaining relative to control DMSO; set-up: scale not given: the % may be the effect or the level left
[9] = molecular target: T1, Transcription regulator protein BACH1 (Homo sapiens); assay: Inhibition of Bach1 in normal human lung fibroblasts assessed as induction of HMOX protein expression by measuring HMOX positive cells level at 0.156 uM in presence of 3 uM Nrf2 activator DMF incubated for 16 to 18 hrs by immunostaining relative to control DMSO; set-up: scale not given: the % may be the effect or the level left
[10] = molecular target: T1, Transcription regulator protein BACH1 (Homo sapiens); assay: Inhibition of Bach1 in normal human lung fibroblasts assessed as induction of HMOX protein expression by measuring HMOX positive cells level at 0.019 uM in presence of 0.1 uM Nrf2 activator DMF incubated for 16 to 18 hrs by immunostaining relative to control DMSO; set-up: scale not given: the % may be the effect or the level left
[11] = molecular target: T1, Transcription regulator protein BACH1 (Homo sapiens); assay: Inhibition of Bach1 in normal human lung fibroblasts assessed as induction of HMOX protein expression by measuring HMOX positive cells level at 0.156 uM in presence of 10 uM Nrf2 activator DMF incubated for 16 to 18 hrs by immunostaining relative to control DMSO; set-up: scale not given: the % may be the effect or the level left
[12] = molecular target: T1, Transcription regulator protein BACH1 (Homo sapiens); assay: Inhibition of Bach1 in normal human lung fibroblasts assessed as induction of HMOX protein expression at 0.156 uM in presence of 0.3 uM Nrf2 activator DMF incubated for 16 to 18 hrs by immunostaining relative to control
[13] = molecular target: T1, Transcription regulator protein BACH1 (Homo sapiens); assay: Inhibition of Bach1 in normal human lung fibroblasts assessed as induction of HMOX protein expression by measuring HMOX positive cells level at 0.156 uM in presence of 0.03 uM Nrf2 activator DMF incubated for 16 to 18 hrs by immunostaining relative to control DMSO; set-up: scale not given: the % may be the effect or the level left
[14] = molecular target: T1, Transcription regulator protein BACH1 (Homo sapiens); assay: Inhibition of Bach1 in normal human lung fibroblasts assessed as induction of HMOX protein expression by measuring HMOX positive cells level at 0.078 uM in presence of 0.1 uM Nrf2 activator DMF incubated for 16 to 18 hrs by immunostaining relative to control DMSO; set-up: scale not given: the % may be the effect or the level left
[15] = molecular target: T1, Transcription regulator protein BACH1 (Homo sapiens); assay: Inhibition of Bach1 in normal human lung fibroblasts assessed as induction of HMOX protein expression at 0.019 uM in presence of 0.1 uM Nrf2 activator DMF incubated for 16 to 18 hrs by immunostaining relative to control
[16] = molecular target: T1, Transcription regulator protein BACH1 (Homo sapiens); assay: Inhibition of Bach1 in normal human lung fibroblasts assessed as induction of HMOX protein expression at 0.078 uM in presence of 3 uM Nrf2 activator DMF incubated for 16 to 18 hrs by immunostaining relative to control
[17] = molecular target: T1, Transcription regulator protein BACH1 (Homo sapiens); assay: Inhibition of Bach1 in normal human lung fibroblasts assessed as induction of HMOX protein expression by measuring HMOX positive cells level at 0.156 uM in presence of 0.3 uM Nrf2 activator DMF incubated for 16 to 18 hrs by immunostaining relative to control DMSO; set-up: scale not given: the % may be the effect or the level left
[18] = molecular target: T1, Transcription regulator protein BACH1 (Homo sapiens); assay: Inhibition of Bach1 in normal human lung fibroblasts assessed as induction of HMOX protein expression at 0.039 uM in presence of 1 uM Nrf2 activator DMF incubated for 16 to 18 hrs by immunostaining relative to control
[19] = molecular target: T1, Transcription regulator protein BACH1 (Homo sapiens); assay: Inhibition of Bach1 in normal human lung fibroblasts assessed as induction of HMOX protein expression at 0.156 uM in presence of 3 uM Nrf2 activator DMF incubated for 16 to 18 hrs by immunostaining relative to control

Activity [1] | Activity [2] | fold change (FC) [3] | fold change (FC) [4] | fold change (FC) [5] | Activity [6] | Activity [7] | Activity [8] | Activity [9] | Activity [10] | Activity [11] | fold change (FC) [12] | Activity [13] | Activity [14] | fold change (FC) [15] | fold change (FC) [16] | Activity [17] | fold change (FC) [18] | fold change (FC) [19] | SMILES
78.7% | 91.3% | 5.64 | 5.22 | 4.8 | 92.2% | 18.7% | 88.2% | 99.2% | 4.52% | 100% | 5.17 | 92.5% | 44.6% | 1.23 | 4.2 | 94.5% | 2.6 | 7.69 | Cn1c(Nc2nc3ccc(C(F)(F)F)cc3s2)nc2cc(C(=O)NCCOCCO)ccc21
75.8% | 86.8% | 4.86 | 1.46 | 4.52 | 98.2% | 13% | 18.5% | 79.6% | 2.55% | 99.7% | 2.06 | 8.51% | 7.05% | 1.13 | 3.12 | 30.1% | 1.97 | 3.63 | COCCNC(=O)c1cnc2c(c1)nc(Nc1nc3ccc(OC(F)(F)F)cc3s1)n2C
68% | 96.2% | 5.13 | 1.99 | 6.18 | 84% | 12.8% | 33.1% | 89% | 2.37% | 100% | 3.06 | 22.1% | 8.24% | 1.15 | 4.33 | 50% | 2.1 | 4.57 | CN(C)C(=O)CNC(=O)c1ccc2c(c1)nc(Nc1nc3ccc(C(F)(F)F)cc3s1)n2C
